Here are results for three compounds from patent US11980772B2, “Method of photodynamic therapy (PDT) for bladder cancer” (priority 2015, dated 2024).

Values joined by “and” are separate entries in the source; they are usually repeats but may differ in a detail not shown here. Equal entries are not always repeated. “Also recorded” adds a separate entry of the source.

The subject of data set [1] is bladder cancer. Particulars: 5-ALA PDT after mitomycin, red laser light 635 nm, 18 mW/cm^2; cited from earlier work.
The test system of data set [2] is bladder cancer. Particulars: 5-ALA instilled, red light 633 nm, 30 and 50 J/cm^2; cited from earlier work.
Data set [3] has as its system bladder cancer. Particulars: cited from earlier work.
Data set [4] has as its system non-muscle invasive papillary bladder cancer (NMIBC). Kind of data set: Phase III multicenter study, tumor recurrence after HAL blue light cystoscopy/TUR. Particulars: 9 months follow-up; for Tumor recurrence rate, All: HAL group (n = 271). In kind it is in vivo, human. As for the experimental part: A prospective, randomized, comparative, controlled phase III multicenter study was carried out in patients with non-muscle invasive papillary bladder cancer (NMIBC). The study population comprised 551 patients which were randomized into two groups (see below). The groups were similar in age, gender, race, bladder cancer history and prior intravesical therapy.
HAL group: 271 patients. The method of the invention was carried out as follows: A solution of HAL (Hexvix®) was instilled into the bladder of patients through a catheter and was left in the bladder for about 1 hour. If the patient could not retain the composition for about 1 hour, at least about 1 hour was allowed to pass from the instillation of Hexvix® to the start of exposing the inside of the bladder to light.
After evacuation of Hexvix®, cystoscopy was carried out with a commercially available cystoscope (blue and white light). The inside of the bladder was first exposed to white light and visually assessed, followed by exposure to blue light to detect cancerous lesions in the bladder. Transurethral resection (TUR) of the detected lesions was carried out under white light and completion of the resection was assessed under blue light.
White light group: 280 patients. Cystoscopy and TUR of bladder cancer under white light only, no HAL.
Patients from both groups with histologically confirmed Ta or T1 lesions were followed up by white light cystoscopy after 3, 6 and 9 months. All tumor recurrences during the 9 months follow-up period were histologically confirmed.
50 patients in the HAL group (18.5%) and 55 patients in the white light group (19.6%) received BCG treatment during the 9 months follow-up period. BCG (Bacillus Calmette-Guérin) is an immunotherapy agent for the treatment of bladder cancer. It is usually repeatedly instilled into the bladder.
Mitomycin is a chemotherapeutic agent for the treatment of bladder cancer. It may be instilled after TUR (single instillation) to e.g. prevent tumor cell seeding, i.e. re-attachment to the bladder wall of tumor cells which were dislocated during resection. Mitomycin was administered after TUR to 16 patients in the HAL group (5.9%) and to 20 patients in the white light group (7.1%).

Data set [5] relates to bladder cancer. Particulars: cited from earlier work. The source holds these as a separate data set.
The subject of data set [6] is patient-derived bladder tumor. As to the kind of experiment: Establishing in vitro primary cell cultures from bladder tumors resected after HAL/blue light TUR. In kind it is cell-based, human. Particulars: HAL/blue light group; blue light 1.5 to 12.5 mW/cm^2, 0.2 to 15.0 J/cm^2. As for the experimental part:
A solution of HAL (Hexvix®) was instilled into the bladder of patients through a catheter and was left in the bladder for about 1 hour. If the patient could not retain the composition for about 1 hour, at least about 1 hour was allowed to pass from the instillation of Hexvix® to the start of exposing the inside of the bladder to light. After evacuation of Hexvix®, a commercially available blue-light cystoscope was inserted into the bladder and a TUR was carried out by exposing the inside of the bladder to white light for the visual inspection, subsequent blue light exposure for fluorescence detection of bladder cancer lesions, resection of the detected lesions under white light and monitoring of the completeness of the resection by use of blue light. Blue light was provided at a fluence rate of 1.5 to 12.5 mW/cm^2 and a light dose of 0.2 to 15.0 J/cm^2 […] at a fluence rate of 3.0 to 22.0 mW/cm^2 and a light dose of 0.4 to 26.5 J/cm^2.
The resected bladder tumors were processed according to methods known in the art and primary cell cultures were established from said patient-derived bladder tumor under appropriate conditions in culture medium. […]

For data set [7], the system named is bladder cancer. Particulars: patients with HAL-guided TUR prior to cystectomy, Kaplan-Meier, cited from earlier work.
Data set [8] deals with superficial bladder tumors (rat bladder carcinoma cell line). Kind of data set: PDT with HAL and blue light in orthotopic rat bladder tumor model. It counts as in vivo. Particulars: HAL 2 mg/ml (8 mM), 1 hour. As for the experimental part:
A rat bladder carcinoma cell line was used in these experiments to establish superficial bladder tumors in Female Fischer rats weighing 150-175 g as described in Francois, et al., J. Urol. 190(2), 2013, 731-736. The animals were used in the experiments 5 days after tumor cell inoculation.
Lyophilized HAL (in the form of Hexvix® powder) was dissolved in PBS to a final concentration of 2 mg/ml (8 mM). 0.5 ml of the solution was instilled into the rat bladder and was left in the bladder for about 1 hour. After evacuation of the HAL solution, 0.5 ml of PBS was instilled into the bladder and whole bladder irradiation with blue light at a fluence rate of 3.5 or 7.0 mW/cm^2 was performed using a 170 mW Modulight laser model ML 6500-405 delivering light at a wavelength of 401 nm, coupled to a fiber with a cylindrical diffuser (1×5 mm) model RD05/500/800 (Medlight, Ecublens, Switzerland) placed in a central position in the bladder. Rats received a blue light dose of 4.0 J/cm^2 (fluence rate 3.5 mW/cm^2) or 7.5 J/cm^2 (fluence rate 7.0 mW/cm^2)
For control, no Hexvix was instilled and only blue light irradiation was carried out at the aforementioned fluence rates/light doses.
The rats were sacrificed 48 hours after illumination by an overdose of pentobarbital. […]

The next data set deals with MIBC. Particulars: neoadjuvant cisplatin-containing chemotherapy; cited from earlier work.

With `NCC(=O)CCC(=O)O` [5-ALA, 5-aminolevulinic acid], the “light dose considered the upper limit of tolerability in terms of side effects” value with bladder cancer [1] is 25 J/cm^2. Besides, in the data set with bladder cancer [2], the “patients whose irritating urinary symptoms did not resolve before 2 weeks” value is 13% and the “side effects in the form of irritating urinary symptoms, occurrence” value is reported as “occurred in all patients”. Moreover, the “complaints of urinary frequency and urgency, occurrence” value in the data set with bladder cancer [3] (5-ALA, white light 100 J/cm^2, 12 patients treated) is “all patients complained about urinary frequency and urgency”. In the data set on bladder cancer [3] (of 12 patients treated), the “patients whose symptoms persisted for 3 weeks” value is 5 patients and the “patients whose symptoms subsided within a week” value is recorded as 7 patients.
On to `CCCCCCOC(=O)CCC(=O)CN` [HAL, n-hexyl 5-amino-4-oxo-pentanoate], for which the “Tumor recurrence rate, All” value in data set [4] (Table 1 and text) was 42.7% and 47.2%; in data set [4] (Table 2), 47.2%. The “Tumor recurrence rate, Received BCG and/or mitomycin” value in data set [4] (HAL group) is on record as 41.5%. Besides, in data set [4] (HAL group), the “Tumor recurrence rate, Received no BCG and/or mitomycin” value was found to be 49.0%. The “Tumor recurrence rate, No BCG” value in [4] (HAL group, patients who did not receive BCG) came out at 49.3%. Further, in data set [4] (HAL group, patients who received BCG), the “Tumor recurrence rate, Received BCG” value was determined as 38.0%. The “patients tumor-free at 21 months” value in the data set with bladder cancer [5] (2 of 17 patients) is 11.8%. In the data set with bladder cancer [5] (4 of 17 patients), the “patients tumor-free at 9 months” value was 23.5%. In addition, the “patients with severe adverse effects” value in the data set on bladder cancer [5] (4 patients of 17) is on record as 23.5%. Further, the “patients tumor-free at 6 months” value in the data set with bladder cancer [5] (9 of 17 patients) is on record as 52.9%. In the data set with bladder cancer [5] (HAL 8 mM and 16 mM, white light 25-100 J/cm^2, 3 PDTs, 17 patients), the “number of adverse effects reported” value was 128. For the same compound, in the data set on bladder cancer [5] (HAL 8 mM and 16 mM, white light, 3 PDTs), the “patients with adverse effects” value was “about 88%”. Moreover, the “number of severe adverse effects reported” value with bladder cancer [5] (in 4 patients, 2 considered to relate to the PDT) is recorded as 7. Moreover, the “establishment of in vitro primary cell cultures from resected bladder tumors” value in data set [6] is on record as “No in vitro primary cell cultures could be established”. The “3-year overall survival (OS)” value in the data set on bladder cancer [7] (56.6% with white light) is 65.0%. The “3-year recurrence-free survival (RFS)” value with bladder cancer [7] (58.2% with white light TUR alone) is 69.8%. Further, the “bladder histology 48 hours after illumination (PDT effect)” value in data set [8] (blue light 3.5 mW/cm^2, 4 J/cm^2, n=2, one animal (50%) each) is “no inflammation, persistent and chorion infiltrating tumors; also recorded: looked less compact and the superficial layer of said tumor was destroyed”; in data set [8] (blue light 7.0 mW/cm^2, 7.5 J/cm^2, n=2) it was “increased tissue thickness/inflammation (both signs of PDT effect) and disintegrating/less compact tumor tissue”.
For the compound `N.N.[Cl][Pt][Cl]` [cisplatin], the “absolute improvement in survival at 5 years” value in the data set with MIBC is 5%.
